# Results: PMC12028158, “Synthesis and In Vitro Evaluation of the Anticancer Effect of Novel Phosphonium Vindoline Derivatives” (International Journal of Molecular Sciences, 2025)
# Like-named read-outs stand apart in the source and are kept apart here.
# What was measured:
# Format in all cases: cell-based
# CCRF-CEM = test: NCI60 five-dose screen; conditions: Homo sapiens
# OVCAR-8 = test: NCI60 five-dose screen; conditions: Homo sapiens
# UO-31 = test: NCI60 five-dose screen; conditions: Homo sapiens
# NCI-H322M = test: NCI60 five-dose screen; conditions: Homo sapiens
# HCC-2998 = test: NCI60 one-dose screen; conditions: Homo sapiens
# NCI-H226 = test: NCI60 five-dose screen; conditions: Homo sapiens
# HOP-62 = test: NCI60 one-dose screen; conditions: Homo sapiens
# Prostate Cancer panel = test: NCI60 five-dose screen, panel mean; conditions: Homo sapiens, read-out: Mean GI50
# OVCAR-5 = test: NCI60 five-dose screen; conditions: Homo sapiens
# CNS Cancer panel = test: NCI60 five-dose screen, panel mean; conditions: Homo sapiens, read-out: Mean GI50
# NCI/ADR-RES = test: NCI60 one-dose screen; conditions: Homo sapiens, read-out: Growth percent
# SW-620 [1] = test: NCI60 five-dose screen; conditions: Homo sapiens
# [2] = test system: 60 human tumor cell lines (NCI60); test: NCI60 one-dose screen, overall mean; conditions: for activity at 10 µM: Homo sapiens, read-out: Mean growth percent
# RXF 393 = test: NCI60 one-dose screen; conditions: Homo sapiens
# SF-295 = test: NCI60 one-dose screen; conditions: Homo sapiens
# ACHN = test: NCI60 five-dose screen; conditions: Homo sapiens
# MDA-MB-435 = test: NCI60 one-dose screen; conditions: Homo sapiens
# HS 578T = test: NCI60 five-dose screen; conditions: Homo sapiens
# COLO 205 = test: NCI60 one-dose screen; conditions: Homo sapiens
# T-47D = test: NCI60 five-dose screen; conditions: Homo sapiens, T47D
# SR = test: NCI60 five-dose screen; conditions: Homo sapiens
# NCI-H23 = test: NCI60 five-dose screen; conditions: Homo sapiens
# SNB-75 = test: NCI60 five-dose screen; conditions: Homo sapiens
# SN12C = test: NCI60 five-dose screen; conditions: Homo sapiens
# MDA-MB-468 = test: NCI60 one-dose screen; conditions: Homo sapiens
# SNB-19 = test: NCI60 five-dose screen; conditions: Homo sapiens
# BT-549 = test: NCI60 one-dose screen; conditions: Homo sapiens
# HL-60(TB) = test: NCI60 one-dose screen; conditions: Homo sapiens
# DU-145 = test: NCI60 five-dose screen; conditions: Homo sapiens
# SF-268 = test: NCI60 five-dose screen; conditions: Homo sapiens
# MDA-MB231ATCC = test: NCI60 five-dose screen; conditions: Homo sapiens, MDA-MB-231
# SW-620 [3] = test: NCI60 one-dose screen; conditions: Homo sapiens
# HCT-116 = test: NCI60 one-dose screen; conditions: Homo sapiens
# SK-MEL-2 = test: NCI60 five-dose screen; conditions: Homo sapiens
# M14 = test: NCI60 five-dose screen; conditions: Homo sapiens
# MDA-MB-231/ATCC = test: NCI60 one-dose screen; conditions: Homo sapiens, MDA-MB-231, read-out: Growth percent
# [4] = Leukemia, five-dose, read-out: GI50
# [5] = mean over 60 cell lines, 10 μM, one-dose
# [6] = Renal Cancer, five-dose, read-out: GI50
structure (smiles),measurement,setting,value
CC[C@]12C=CCN3CC[C@@]4(c5ccc(OC)cc5N(C)[C@H]4[C@@](O)(C(=O)OC)[C@@H]1OC(=O)CCC[P+](c1cc(C)c(OC)c(C)c1)(c1cc(C)c(OC)c(C)c1)c1cc(C)c(OC)c(C)c1)[C@@H]32 [9e],GI50,CCRF-CEM; [4],114 nM
same,GI50,"OVCAR-8; OVCAR-8, Ovarian Cancer, five-dose, read-out: GI50",300 nM
same,GI50,"UO-31; UO-31, Renal Cancer, five-dose, read-out: GI50",1480 nM
same,GI50,"NCI-H322M; Non-small Cell Lung Cancer, five-dose, read-out: GI50",342 nM
same,activity at 10 µM,"HCC-2998; HCC-2998, 10 μM, one-dose, read-out: Growth percent",-97.9%
same,GI50,"NCI-H226; NCI-H226, Non-small Cell Lung Cancer, five-dose, read-out: GI50",230 nM
same,activity at 10 µM,"HOP-62; HOP-62, 10 μM, one-dose, read-out: Growth percent",-97.9%
same,GI50,Prostate Cancer panel; mean over Prostate Cancer panel,250 nM
same,GI50,"OVCAR-5; OVCAR-5, Ovarian Cancer, five-dose, read-out: GI50",339 nM
same,GI50,CNS Cancer panel; mean over CNS Cancer panel,180 nM
same,activity at 10 µM,"NCI/ADR-RES; 10 μM, one-dose",-87.2%
same,GI50,"SW-620 [1]; SW-620, Colon Cancer, five-dose, read-out: GI50",245 nM
same,activity at 10 µM,[2]; [5],-97.1%
same,Mean growth percent,[2]; [5],−97.13%
same,average reduction / average cell death,"[2]; one-dose, 10 µM, average over cell lines",more than 70%
same,activity at 10 µM,"RXF 393; RXF 393, 10 μM, one-dose, read-out: Growth percent",-98.6%
same,activity at 10 µM,"SF-295; SF-295, 10 μM, one-dose, read-out: Growth percent",-98.6%
same,GI50,ACHN; [6],319 nM
same,activity at 10 µM,"MDA-MB-435; MDA-MB-435, 10 μM, one-dose, read-out: Growth percent",-98.2%
same,GI50,"HS 578T; HS 578T, Breast Cancer, five-dose, read-out: GI50",185 nM
same,activity at 10 µM,"COLO 205; COLO 205, 10 μM, one-dose, read-out: Growth percent",-96.6%
same,GI50,"T-47D; T-47D, Breast Cancer, five-dose, read-out: GI50",105 nM
same,GI50,SR; [4],144 nM
same,GI50,"NCI-H23; NCI-H23, Non-small Cell Lung Cancer, five-dose, read-out: GI50",183 nM
same,GI50,"SNB-75; SNB-75, CNS Cancer, five-dose, read-out: GI50",195 nM
same,GI50,SN12C; [6],159 nM
same,activity at 10 µM,"MDA-MB-468; MDA-MB-468, 10 μM, one-dose, read-out: Growth percent",-99.4%
same,GI50,"SNB-19; SNB-19, CNS cancer SNB-19, text, read-out: GI50",< 100 nM
same,GI50,"SNB-19; SNB-19, SNB-19, CNS Cancer, five-dose, read-out: GI50",59 nM
same,activity at 10 µM,"BT-549; BT-549, 10 μM, one-dose, read-out: Growth percent",-98%
same,activity at 10 µM,"HL-60(TB); HL-60(TB), 10 μM, one-dose, read-out: Growth percent",-97.2%
same,GI50,"DU-145; DU-145, Prostate Cancer, five-dose, read-out: GI50",300 nM
same,GI50,"SF-268; SF-268, CNS Cancer, five-dose, read-out: GI50",231 nM
same,GI50,"MDA-MB231ATCC; MDA-MB231ATCC, Breast Cancer, five-dose, read-out: GI50",293 nM
same,activity at 10 µM,"SW-620 [3]; SW-620, 10 μM, one-dose, read-out: Growth percent",-95.8%
same,activity at 10 µM,"HCT-116; HCT-116, 10 μM, one-dose, read-out: Growth percent",-93%
same,GI50,"SK-MEL-2; SK-MEL-2, SK-MEL-2, Melanoma, five-dose, read-out: GI50",60 nM
same,GI50,"SK-MEL-2; SK-MEL-2, melanoma SK-MEL-2, text, read-out: GI50",< 100 nM
same,GI50,"M14; M14, Melanoma, five-dose, read-out: GI50",299 nM
CC[C@]12C=CCN3CC[C@@]4(c5ccc(OC)cc5N(C)[C@H]4[C@@](O)(C(=O)OC)[C@@H]1OC(=O)CCC[P+](c1ccccc1)(c1ccccc1)c1ccccc1OC)[C@@H]32 [9f],GI50,CCRF-CEM,256 nM
same,GI50,OVCAR-8; OVCAR-8,790 nM
same,GI50,UO-31; UO-31,11000 nM
same,GI50,NCI-H322M,2230 nM
same,activity at 10 µM,"HCC-2998; HCC 2998, read-out: Growth percent",-93.1%
same,GI50,NCI-H226; NCI-H226,1210 nM
same,activity at 10 µM,"HOP-62; HOP-62, read-out: Growth percent",-13.7%
same,GI50,Prostate Cancer panel,340 nM
same,GI50,OVCAR-5; OVCAR-5,735 nM
same,GI50,CNS Cancer panel,570 nM
same,activity at 10 µM,NCI/ADR-RES,75.9%
same,GI50,SW-620 [1]; SW-620,637 nM
same,activity at 10 µM,[2]; 60 cell,-45.4%
same,activity at 10 µM,"RXF 393; RXF 393, read-out: Growth percent",-83.6%
same,activity at 10 µM,"SF-295; SF-295, read-out: Growth percent",-42.3%
same,activity at 10 µM,MDA-MB-231/ATCC,-94.5%
same,GI50,ACHN,4580 nM
same,activity at 10 µM,"MDA-MB-435; MDA-MB-435, read-out: Growth percent",-73.7%
same,GI50,HS 578T; Hs-578T,473 nM
same,activity at 10 µM,"COLO 205; COLO 205, read-out: Growth percent",-90.7%
same,GI50,T-47D,302 nM
same,GI50,SR,221 nM
same,GI50,NCI-H23; NCI-H23,413 nM
same,GI50,SNB-75; SNB-75,197 nM
same,GI50,SN12C,325 nM
same,activity at 10 µM,"MDA-MB-468; MDA-MB-468, read-out: Growth percent",-84.6%
same,GI50,SNB-19; SNB-19,313 nM
same,activity at 10 µM,"BT-549; BT-549, read-out: Growth percent",-64.2%
same,activity at 10 µM,"HL-60(TB); HL-60, read-out: Growth percent",-5.95%
same,GI50,DU-145; DU-145,418 nM
same,GI50,SF-268; SF-268,372 nM
same,GI50,MDA-MB231ATCC,397 nM
same,activity at 10 µM,"SW-620 [3]; SW-620, read-out: Growth percent",-48.7%
same,activity at 10 µM,"HCT-116; HCT-116, read-out: Growth percent",-51%
same,GI50,SK-MEL-2; SK-MEL-2,322 nM
same,GI50,M14; M14,1060 nM
